Source: ChEMBL document CHEMBL1147214, “Tetraplex DNA specific ligands based on the fluorenone-carboxamide scaffold” (Bioorg Med Chem Lett, 2007)

Columns and labels:
Salmonidae [1] = assay: Effect on Salmon testes DNA stabilization assessed as thermal denaturation at 100 uM; type: functional
Salmonidae [2] = assay: Binding affinity to Salmon testes DNA

| Structure (SMILES) | Ka (Salmonidae [2]) | ΔTm (Salmonidae [1]) [°C] |
| --- | --- | --- |
| CC(O)CNC(=O)c1cccc2c1-c1ccccc1C2=O (stereo unspecified) | – | 2.1 |
| O=C(NCCO)c1cccc2c1-c1ccccc1C2=O | – | 1.9 |
| O=C(NCCOCCO)c1cccc2c1-c1ccccc1C2=O | – | 0.2 |
| O=C(NCCCCO)c1cccc2c1-c1ccccc1C2=O | – | -0.8 |

Further lines, with some results ahead:

| Ka (Salmonidae [2]) | Structure (SMILES) | ΔTm (Salmonidae [1]) [°C] |
| --- | --- | --- |
| 3.1 10^4/M | CN(C)CCCNC(=O)c1cccc2c1-c1ccccc1C2=O | 2.1 |
| 8.4 10^3/M | O=C(NCCCO)c1cccc2c1-c1ccccc1C2=O | 3.1 |
| 2.3 10^4/M | O=C(NCCCN1CCOCC1)c1cccc2c1-c1ccccc1C2=O | -0.8 |
| 7.8 10^4/M | CCN(CC)CCNC(=O)c1cccc2c1-c1ccccc1C2=O | 2.1 |
| 3.3 10^3/M | CN(C)CCNC(=O)c1cccc2c1-c1ccccc1C2=O | 0.2 |
| 1.6 10^5/M | O=C(NCCN1CCOCC1)c1cccc2c1-c1ccccc1C2=O | 1.2 |
